This note sets out measurements from the OligoGym collection.

These antisense oligonucleotides have a phosphorothioate backbone; sugars and methylation of C are not fully specified.
Also: test concentration or dose not given here.

The target in the first data set is PTEN. The settings on record: ASO.
Take AATTATTTCCTTTCTGAG: the remaining target (mRNA or protein) (fraction of control) was found to be 0.86. On the same count and under the same terms, with ACATAGCGCCTCTGACTG the figure was 0.28; with ACTGGAATAAAACGGGAA, 0.85; with ACTTCAGTTGGTGACAGA, 0.31. Same read-out and setting: in the case of ATGGTGACAGGCGACTCA it was 0.25. As for ATTACACCAGTTCGTCCC, the remaining target (mRNA or protein) (fraction of control) turned out to be 0.41. The same measure, in the same setting: with ATTGTTGCTGTGTTTCTT the figure was 0.36; with ATTTCTTGATCACATAGA, not below 1; with CAAGATCTTCACAAAAGG, not below 1. Same read-out and setting: in the case of CAGATTAATAACTGTAGC it was 0.91; in that of CAGGAGAAGCCGAGGAAG, 0.49; in that of CCCCAATACAGATTCACT, 0.48. The same measure, in the same setting: in the case of CCCGCGGCTGCTCACAGG it was 0.19. In the case of CCGGGTCCCTGGATGTGC, the remaining target (mRNA or protein) (fraction of control) is 0.24. Still for that read-out and setting: in the case of CCTCCGAACGGCTGCCTC it was 0.4; in that of CGAGAGGCGGACGGGACC, not below 1. Same read-out and setting: with CGCTTGGCTCTGGACCGC the figure was 0.16; with CGGGCGCCTCGGAAGACC, 0.38. Still for that read-out and setting: in the case of GAATATATCTTCACCTTT it was 0.58; in that of GGAAGAACTCTACTTTGA, 0.62; in that of GGATAAATATAGGTCAAG, not below 1. For the sequence GGGAGGTGCCGCCGCCGC, the remaining target (mRNA or protein) (fraction of control) was 0.58. Same read-out and setting: with GGTTGGCTTTGTCTTTAT the figure was 0.23; with GTGTCAAAACCCTGTGGA, 0.28; with TAAATAGCTGGAGATGGT, 0.45.

With TAGCAAAACCTTTCGGAA, the remaining target (mRNA or protein) (fraction of control) came out at 0.49. TATTTTCATGGTGTTTTA showed a remaining target (mRNA or protein) (fraction of control) of 0.24. On the same count and under the same terms, in the case of TCAATATTGTTCCTGTAT it was not below 1; in that of TCTCCTCAGCAGCCAGAG, 0.66; in that of TCTGGATCAGAGTCAGTG, 0.56. The sequence TCTTCTGCAGGATGGAAA displayed a remaining target (mRNA or protein) (fraction of control) not below 1. Still for that read-out and setting: with TGAAGAATGTATTTACCC the figure was 0.56; with TGCTAACGATCTCTTTGA, 0.57; with TGCTAGCCTCTGGATTTG, 0.26. Still for that read-out and setting: in the case of TGGCTGCAGCTTCCGAGA it was 0.27. The same measure, in the same setting: with TGTCTCTGGTCCTTACTT the figure was 0.66; with TGTGAAACAACAGTGCCA, 0.25.

A further data set has as its target FADD. The following applies: ASO.
GGTTCCAACTTTCCAACT yielded a remaining target (mRNA or protein) (fraction of control) of 0.97. Same read-out and setting: in the case of GTCTGAGACTTTGAGCTG it was not below 1; in that of GTTGCGTTCTCCTTCTCT, 0.76; in that of TACCAGGTCAGCCACCAG, 0.91.

In the case of TCATAGTGAGGAAGAAAT, the remaining target (mRNA or protein) (fraction of control) was not below 1. On the same count and under the same terms, with TCATCAGCACCTCACAGA the figure was 0.74; with TGGAGTAACAGTGTGACT, 0.64. Still for that read-out and setting: with TTTGATACAAAACAGTAA the figure was 0.42.

Another data set concerns the target RIPK1. The following applies: ASO.
Consider AAAAGGGTCATGGGAGAC, for which the remaining target (mRNA or protein) (fraction of control) was not below 1. In turn, ACATCTGGCCTGTTCCCA returned a remaining target (mRNA or protein) (fraction of control) of 0.56. Regarding ACTGGGATATTATGCAGA, the remaining target (mRNA or protein) (fraction of control) worked out at 0.98. Same read-out and setting: in the case of AGTCTGTTCATCATCTTC it was 0.96; in that of ATAAAGATGGTAGTTGGC, not below 1; in that of ATCTGGTAAACCTTTTCT, 0.99. On the same count and under the same terms, in the case of ATCTTAATGACATTCAAG it was not below 1; in that of ATTCGCTTCCCAGCAGAG, 0.7; in that of ATTCTCTTCTTGTGGGTG, not below 1. In the case of ATTTTATAGATTCATCTG, the remaining target (mRNA or protein) (fraction of control) is not below 1.

CAAGTTGAAGAGACTGCA registered a remaining target (mRNA or protein) (fraction of control) not below 1. Still for that read-out and setting: with CAATGATTTCCCAAATTA the figure was not below 1; with CAGTGCTTTCCCAGATTT, 0.94; with CATGGTCAATTTCATCAA, not below 1. Still for that read-out and setting: in the case of CCACTTCCCTCAGCTCAT it was not below 1; in that of CCATATAATTGTAGGCTC, not below 1. Regarding CCATGTAGTAGAGGGTGC, the remaining target (mRNA or protein) (fraction of control) is not below 1. Same read-out and setting: with CCCTATCAGTGAGGACAG the figure was not below 1; with CCCTGGGTTCTGTGGAAA, 0.7; with CTCTATGATGACGCCCAG, 0.69.

On to CTGTGGCTGAATTTGACC, for which the remaining target (mRNA or protein) (fraction of control) is not below 1. On the same count and under the same terms, with GAAGTTTGAGACCAGCCT the figure was not below 1; with GACCCATCCCAAGTCCCT, not below 1. Still for that read-out and setting: in the case of GCCACATTCTGTCTGGGC it was 0.72; in that of GGATCCAGTGGTCTTGTT, 0.84; in that of GGCATGGTGGGTGTATTT, not below 1.

In turn, GGTTAGTTCTGGCTGACG gave a remaining target (mRNA or protein) (fraction of control) not below 1. Still for that read-out and setting: with GTGCATCAGGTTGCCCTT the figure was not below 1.

In turn, GTGCCTTTTCCCTCTGTA came in with a remaining target (mRNA or protein) (fraction of control) of 0.84. Still for that read-out and setting: with TATCAAAGATAGCTTGGT the figure was not below 1; with TATGGCTCCTTATTTGCA, 0.78.

Sequence TCCCAGCACTTTGGAAGG came in with a remaining target (mRNA or protein) (fraction of control) not below 1.

As for TGAGGTTGGCTGGTGAGC, the remaining target (mRNA or protein) (fraction of control) came to 0.83.

Turning to TGCTCCACATCTTAAAGG, the remaining target (mRNA or protein) (fraction of control) is 0.75.

As for TGGAAGTCATTATCAACA, the remaining target (mRNA or protein) (fraction of control) was not below 1. Sequence TGTCCAGTTCTGCACTCT had a remaining target (mRNA or protein) (fraction of control) of 0.81. The same measure, in the same setting: with TTAAACTCTTCACGTCCT the figure was 0.85; with TTGTGCTGTCTAGTAGTG, not below 1. Same read-out and setting: with TTGTGTATCACGCCTTTT the figure was not below 1; with TTTCCCCATTCTCCAGCT, 0.85.
